Measurements reported in ChEMBL document CHEMBL3232841, “New aminobenzenesulfonamide-thiourea conjugates: synthesis and carbonic anhydrase inhibition and docking studies” (Eur J Med Chem, 2014).

Biological target: Carbonic anhydrase 2 (Bos taurus, UniProt P00921)
Assay: Inhibition of bovine erythrocyte carbonic anhydrase 2 using p-nitrophenyl acetate as substrate preincubated for 10 mins before substrate addition measured after 30 mins by spectrophotometric analysis

Chain of Carbonic anhydrase 2 (P00921 whole entry): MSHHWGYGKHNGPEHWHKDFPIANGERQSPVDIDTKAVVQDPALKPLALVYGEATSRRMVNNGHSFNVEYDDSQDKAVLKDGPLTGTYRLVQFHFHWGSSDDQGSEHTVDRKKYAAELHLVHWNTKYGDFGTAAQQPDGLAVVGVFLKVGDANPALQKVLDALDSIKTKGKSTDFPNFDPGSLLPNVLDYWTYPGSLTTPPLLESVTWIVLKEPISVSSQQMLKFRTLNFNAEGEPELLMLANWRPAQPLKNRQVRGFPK

Row | SMILES | IC50
1 | NS(=O)(=O)c1cccc(NC(=S)NC(=O)C23CC4CC(CC(C4)C2)C3)c1 | 5.58 µM
2 | NS(=O)(=O)c1cccc(NC(=S)NC(=O)c2ccccc2Cl)c1 | 13.5 µM
3 | NS(=O)(=O)c1cccc(NC(=S)NC(=O)c2cc3ccccc3oc2=O)c1 | 13.4 µM
4 | NS(=O)(=O)c1cccc(NC(=S)NC(=O)c2ccco2)c1 | 9.76 µM
5 | NS(=O)(=O)c1ccc(NC(=S)NC(=O)c2cc3ccccc3oc2=O)cc1 | 11.3 µM
6 | NS(=O)(=O)c1cccc(NC(=S)NC(=O)c2cccs2)c1 | 0.052 µM
7 | CC(C)(C)C(=O)NC(=S)Nc1cccc(S(N)(=O)=O)c1 | 1.28 µM
8 | NS(=O)(=O)c1cccc(NC(=S)NC(=O)c2ccc(Cl)cc2Cl)c1 | 17.1 µM
9 | NS(=O)(=O)c1ccc(NC(=S)NC(=O)c2cccs2)cc1 | 0.011 µM

Results, then the compound that gave them:

Row | IC50 | SMILES
10 | 0.49 µM | NS(=O)(=O)c1cccc(NC(=S)NC(=O)c2cccc([N+](=O)[O-])c2)c1
11 | 5.64 µM | NS(=O)(=O)c1cccc(NC(=S)NC(=O)c2ccc(Cl)cc2)c1
12 | 0.22 µM | NS(=O)(=O)c1cccc(NC(=S)NC(=O)c2cccc(Cl)c2)c1
13 | 14.2 µM | NS(=O)(=O)c1cccc(NC(=S)NC(=O)c2cc([N+](=O)[O-])cc([N+](=O)[O-])c2)c1
